Counter-ions that a name gives are not always drawn.
How the values were obtained:
[1] = Anti-melanogenic activity in theophylline-stimulated mouse B16 melanoma 4A5 cells assessed as inhibition of melanogenesis; type: functional, cell-based
[2] = Potency index, ratio of arbutin IC50 to test compound IC50 for anti-melanogenic activity in theophylline-stimulated mouse B16 melanoma 4A5 cells assessed as inhibition of melanogenesis; type: functional

IC50 [1]	Compound	Ratio IC50 [2]
6.7 µM	CC1(C)c2ccccc2-c2c3c(cc4ccnc1c24)OCO3	
> 30 µM	COc1ccc2c(C(C)(C)c3ccccc3)nccc2c1	
6.5 µM	COc1cc2c(cc1OC)[C@@H](Cc1ccc(O)cc1)N(C)CC2	
4 µM	COc1ccc2ccnc3c2c1-c1ccccc1C3(C)C	
> 30 µM	COc1cccc(C(C)(C)c2nccc3cc4c(cc23)OCO4)c1	
174 µM	OC[C@H]1O[C@@H](Oc2ccc(O)cc2)[C@H](O)[C@@H](O)[C@@H]1O [ARBUTIN]	
> 30 µM	COc1cccc(C(C)(C)c2nccc3cc(OC)ccc23)c1	
3.1 µM	CC1(C)c2ccccc2-c2cccc3ccnc1c23	
> 30 µM	CC(C)(c1ccccc1)c1nccc2ccccc12	
> 30 µM	CC(C)(c1ccccc1)c1nccc2cc3c(cc12)OCO3	
5 µM	COc1cc2c3c(nccc3c1)C(C)(C)c1ccccc1-2	
4.9 µM	COc1ccc2c(c1)C(C)(C)c1nccc3cc4c(c-2c13)OCO4	40
7.5 µM	COc1ccc2c(c1)C(C)(C)c1nccc3cc(OC)cc-2c13	
18.1 µM	COc1ccc2ccnc(C(C)(C)c3ccccc3)c2c1	

Compound	IC50 [1]	Ratio IC50 [2]
COc1cc2c3c(c1OC)-c1ccccc1C[C@H]3N(C)CC2 [NUCIFERINE HYDROCHLORIDE]	7.1 µM	

Reference: ChEMBL document CHEMBL5236578, “Structure-activity relationship study of 4,5-didehydroguadiscine, an aporphine alkaloid showing potent melanogenesis-inhibitory activity in B16 melanoma cells” (Bioorg Med Chem Lett, 2022)
